In the OligoGym collection:
Several values for one entry are separate records, joined by “and”; a condition that tells them apart may be missing. Equal values may be shown once. After the bases stand the sugars from the 5' end (letter, count) and the backbone: PS all phosphorothioate, else s phosphorothioate and o phosphodiester by linkage. Methylation of C is not given here. e = 2'-O-(2-methoxyethyl) (MOE); k = constrained ethyl (cEt); d = 2'-deoxy (DNA)

Target: APOL1
Conditions: ASO

Sequence: AAGATTGGCTCTGGCT (sugars kkddddekekeddddd, PS)
- target mRNA inhibition (A431, 2 µM): 66%

Sequence: AAGATTGGCTCTGGCT (sugars kkddddkdkdkddddd, PS)
- target mRNA inhibition (A431, 2 µM): 65%

Sequence: AAGCTTTAAACTCAGG (sugars k2 d4 e3 k2 d5, PS)
- target mRNA inhibition (A431, 0.0156 µM): 15%
- target mRNA inhibition (A431, 0.0625 µM): 48%
- target mRNA inhibition (A431, 0.25 µM): 76%
- target mRNA inhibition (A431, 1 µM): 92%
- target mRNA inhibition (A431, 2 µM): 95%

Sequence: AAGCTTTAAACTCAGG (sugars k3 d4 k3 e1 d5, PS)
- target mRNA inhibition (A431, 2 µM): 72%

Sequence: AAGCTTTAAACTCAGG (sugars kkddddkekekddddd, PS)
- target mRNA inhibition (A431, 2 µM): 48%

Sequence: AAGTATTGCCAGCTAA (sugars k2 d4 e3 k2 d5, PS)
- target mRNA inhibition (A431, 2 µM): 63%

Sequence: AAGTATTGCCAGCTAA (sugars kdddddkekekddddd, PS)
- target mRNA inhibition (A431, 2 µM): 54%

Sequence: AAGTCAGTACAGAGCA (sugars k4 d9 k3, PS)
- target mRNA inhibition (A431, 0.0625 µM): 52%
- target mRNA inhibition (A431, 0.25 µM): 79%
- target mRNA inhibition (A431, 1 µM): 89%

Sequence: AATAATGGTAGGTCTA (sugars k4 d9 k3, PS)
- target mRNA inhibition (A431, 0.0625 µM): 41%
- target mRNA inhibition (A431, 0.25 µM): 71%
- target mRNA inhibition (A431, 1 µM): 84%

Sequence: AATTCTATTAGAGGGC (sugars kkddddekekeddddd, PS)
- target mRNA inhibition (A431, 2 µM): 79%

Sequence: ACACATCATTGGGTTA (sugars k2 d4 e3 k2 d5, PS)
- target mRNA inhibition (A431, 2 µM): 51%

Sequence: ACACATCATTGGGTTA (sugars k4 d9 k3, PS)
- target mRNA inhibition (A431, 0.0625 µM): 54%
- target mRNA inhibition (A431, 0.25 µM): 75%
- target mRNA inhibition (A431, 1 µM): 87%

Sequence: ACACATCATTGGGTTA (sugars kkddddkekekkdddd, PS)
- target mRNA inhibition (A431, 2 µM): 20%

Sequence: ACACATCATTGGGTTA (sugars kkkddddkdkdkdddd, PS)
- target mRNA inhibition (A431, 2 µM): 48%

Sequence: ACATCATTGGGTTATG (sugars kdddddkekekddddd, PS)
- target mRNA inhibition (A431, 2 µM): 89%

Sequence: ACATCATTGGGTTATG (sugars kddddkekekeddddd, PS)
- target mRNA inhibition (A431, 2 µM): 76%

Sequence: ACGCAATGCTGACTTG (sugars kkddddkekekkdddd, PS)
- target mRNA inhibition (A431, 2 µM): 72%

Sequence: ACTCAAGTCAGTACAG (sugars k4 d9 k3, PS)
- target mRNA inhibition (A431, 0.0625 µM): 27%
- target mRNA inhibition (A431, 0.25 µM): 58%
- target mRNA inhibition (A431, 1 µM): 77%

Sequence: ACTCCTTATGTTTTGA (sugars k4 d9 k3, PS)
- target mRNA inhibition (A431, 0.0625 µM): 46%
- target mRNA inhibition (A431, 0.25 µM): 75%
- target mRNA inhibition (A431, 1 µM): 91%

Sequence: ACTGTTCTAACTCTTG (sugars k4 d9 k3, PS)
- target mRNA inhibition (A431, 0.0625 µM): 85%
- target mRNA inhibition (A431, 0.25 µM): 92%
- target mRNA inhibition (A431, 1 µM): 95%

Sequence: ACTTTATACCAGTGTC (sugars kkkddddkekeddddd, PS)
- target mRNA inhibition (A431, 2 µM): 65%

Sequence: AGAACTCAAGTCAGTA (sugars k4 d9 k3, PS)
- target mRNA inhibition (A431, 0.0625 µM): 38% and 62%
- target mRNA inhibition (A431, 0.25 µM): 67% and 83%
- target mRNA inhibition (A431, 1 µM): 86% and 88%

Sequence: AGATTGGCTCTGGCTC (sugars kddddkekekeddddd, PS)
- target mRNA inhibition (A431, 2 µM): 23%

Sequence: AGCTTTAAACTCAGGT (sugars kddddkekekeddddd, PS)
- target mRNA inhibition (A431, 2 µM): 52%

Sequence: AGCTTTAAACTCAGGT (sugars kkddddkekekkdddd, PS)
- target mRNA inhibition (A431, 2 µM): 16%

Sequence: AGGTTTGGATGGAAGG (sugars k4 d9 k3, PS)
- target mRNA inhibition (A431, 0.0625 µM): 36%
- target mRNA inhibition (A431, 0.25 µM): 73%
- target mRNA inhibition (A431, 1 µM): 88%

Sequence: AGTATTGCCAGCTAAG (sugars k2 d4 e4 k2 d4, PS)
- target mRNA inhibition (A431, 2 µM): 59%

Sequence: AGTATTGCCAGCTAAG (sugars k3 d4 k3 e1 d5, PS)
- target mRNA inhibition (A431, 2 µM): 89%

Sequence: AGTATTGTTTTTGTGG (sugars k2 d4 e3 k2 d5, PS)
- target mRNA inhibition (A431, 2 µM): 90%

Sequence: AGTTTTGTAAGTGCAA (sugars k2 d4 e3 k2 d5, PS)
- target mRNA inhibition (A431, 0.0156 µM): 10%
- target mRNA inhibition (A431, 0.0625 µM): 49%
- target mRNA inhibition (A431, 0.25 µM): 79%
- target mRNA inhibition (A431, 1 µM): 93%
- target mRNA inhibition (A431, 2 µM): 94%

Sequence: AGTTTTGTAAGTGCAA (sugars kkdddddkekeddddd, PS)
- target mRNA inhibition (A431, 2 µM): 92%

Sequence: AGTTTTGTAAGTGCAA (sugars kkddddkekekddddd, PS)
- target mRNA inhibition (A431, 2 µM): 81%

Sequence: ATATCAGATGGGTACT (sugars kkddddekekeddddd, PS)
- target mRNA inhibition (A431, 2 µM): 27%

Sequence: ATCAGATGGGTACTTC (sugars kddddkekekeddddd, PS)
- target mRNA inhibition (A431, 2 µM): 43%
